From publication PMC6410202, “Dual Action of the PN159/KLAL/MAP Peptide: Increase of Drug Penetration across Caco-2 Intestinal Barrier Model by Modulation of Tight Junctions and Plasma Membrane Permeability” (Pharmaceutics, 2019)

Tests used:
[1] = system: Enterococcus faecium (ATCC 700221); assay: MIC, serial broth dilution; format: cell-based; conditions: ATCC700221, Brain-Heart-Infusion broth, 18 h, vancomycin resistant strain
Method: (§1) The MIC of PN159 on the 6 sensitive and resistant ESKAPE pathogenic strains was determined in cation-adjusted Muller–Hinton broth. […] Minimum inhibitory concentrations (MICs) were determined by using a standard serial broth dilution technique. Briefly, 11-step serial dilutions were prepared in 96-well microtiter plates with three biological replicates per strain. Pathogens were inoculated into each well at a density of 5×10^5 bacteria/mL, and the plates were incubated at 37 °C. Plates were shaken at 300 rpm during incubation for 18 h. Cell growth was monitored by measuring the optical density (OD600 value, Synergy 2 microplate reader BioTek Instruments Inc, Winooski, VT, USA). […] As reference compounds we tested the antimicrobial activity of three bactericidal drugs with different modes of action.

[2] = system: Klebsiella pneumoniae (ATCC 10031); assay: MIC, serial broth dilution; format: cell-based; conditions: ATCC10031, Muller–Hinton broth, 18 h
Method: as §1

[3] = system: Staphylococcus aureus (ATCC 29213); assay: MIC, serial broth dilution; format: cell-based; conditions: ATCC29213, Muller–Hinton broth, 18 h
Method: as §1

[4] = system: Acinetobacter baumannii (ATCC 17978); assay: MIC, serial broth dilution; format: cell-based; conditions: ATCC17978, Muller–Hinton broth, 18 h
Method: as §1

[5] = system: Enterobacter cloacae spp. cloacae (ATCC 13047); assay: microbe, parasite or virus in culture; conditions: Enterobacter cloacae, ATCC13047, 18 h
Method: as §1

[6] = system: Pseudomonas aeruginosa (ATCC 27853); assay: microbe, parasite or virus in culture; conditions: Pseudomonas aeruginosa, ATCC27853, 18 h
Method: as §1

[7] = system: Caco-2 cells; assay: Impedance measurement (RTCA), Caco-2 cells; format: cell-based; conditions: CPPs 100 μM, 24-h monitoring
Method: Kinetics of epithelial cell reaction to PN159 peptide treatment was monitored by impedance measurement at 10 kHz (RTCA-SP instrument, ACEA Biosciences, San Diego, CA, USA). Impedance measurement is non-invasive, label-free and real time, and linearly correlates with adherence, growth, number and viability of cells. For background measurements 50 μL cell culture medium was added to the wells, then cells were seeded at a density of 6 × 10^3 cells/well to the coated 96-well plates with integrated gold electrodes (E-plate 96, ACEA Biosciences). Cells were cultured for 5–7 days in a CO2 incubator at 37 °C and monitored every 10 min until the end of experiments. Cells were treated with PN159 peptide solutions at 1, 3, 10, 30 and 100 μM concentrations at the beginning of the plateau phase of growth and the effects were followed for 1-h or 24 h. To measure cell recovery, peptide solutions were changed to culture medium and the impedance was monitored for one week. Culture medium was changed every 2 days. Caco-2 cells were also treated with the three selected CPPs, Pep-1, R8 and φ-peptide, at 100 μM concentrations at the beginning of the plateau phase of cell growth for 24-h. Triton X-100 detergent (1 mg/mL) was used as a reference compound to induce cell death. Cell index was defined as Rn-Rb at each time point of measurement, where Rn is the cell-electrode impedance of the well when it contains cells and Rb is the background impedance of the well with the medium alone.

[8] = in vitro; conditions: human, Caco-2, Papp A-B
Method: (§2) In the permeability experiments inserts with Caco-2 cell layers grown for 3 weeks were transferred to 12-well plates containing 1.5 mL Ringer–Hepes buffer in the lower (basal or acceptor) compartments. In the upper or apical compartments culture medium was replaced by 0.5 mL buffer containing peptide solutions: PN159 peptide at 1, 3, 10 and 30 μM concentrations and CPPs at 100 μM concentration. […] The incubation with permeability markers in the presence of PN159 peptide lasted for 30 min. In case of CPPs the incubation time with fluorescein was 1-h. Samples were collected from both compartments and the concentrations of the marker molecules were determined by a fluorescence multi-well plate reader (Fluostar Optima; excitation wavelength: 485 nm, emission wavelength: 535 nm in the case of fluorescein and excitation wavelength: 584 nm, emission wavelength: 680 nm in the case of Evans-blue labeled albumin). Fluorescein isothiocyanate (FITC)-labelled dextran marker molecules (Table 1) were used at 1 mM concentrations, and fluorescence intensities of collected samples were measured using a Fluorolog FL3-22 (Horiba Jobin Yvon, Paris, France) spectrofluorometer using 492 nm excitation wavelength, 515 nm emission wavelength, and 0.5 s integration time. Drugs were used at 10 μM concentrations and samples were measured by HPLC as described below. The apparent permeability coefficients (Papp) were calculated as described previously. Briefly, cleared volume was calculated from the concentration difference of the tracer in the basal compartments (Δ[C]B) after 30 min and apical compartments at 0 h ([C]A), the volume of the basal compartment (VB; 1.5 mL) and the surface area available for permeability (A; 1.1 cm^2).
(§3) Analytical measurements were performed on a Merck-Hitachi LaChrom HPLC system equipped with an ultraviolet (UV) and fluorescence detector (Merck, Darmstadt, Germany). All reagents used were of analytical reagent grade. […] In both cases 10μL sample was injected into the chromatographic system.
(§4) The chromatographic column was maintained at 40 °C and the 5 μL sample was injected onto the column.
(§5) The column temperature was maintained at 40 °C and a 20 μL sample was injected onto the chromatographic system. […] UV detection was set at 228 nm.

[9] = system: EpiAirway model; conditions: airway epithelial tissue model, by PN159; cited from earlier work
[10] = system: Caco-2 cell layers; assay: Penetration of marker and drug molecules across Caco-2 cell layers (Papp A-B); conditions: CPPs 100 μM, 1-h treatment
Method: as §2, §3, §4, §5

[11] = system: Klebsiella pneumoniae; design: method as in PMID 27617798; conditions: cited from earlier work

CO[C@@]1(NC(=O)Cc2cccs2)C(=O)N2C(C(=O)O)=C(COC(N)=O)CS[C@@H]21 [Cefoxitin, cefoxitin]
MIC [1]: > 223 µM
MIC [2]: 3.5 µM
MIC [3]: 6.9 µM
MIC [4]: 223 µM
MIC [5]: > 223 µM
MIC [6]: > 223 µM

CNC(C)C1CCC(N)C(OC2C(N)CC(N)C(OC3OCC(C)(O)C(NC)C3O)C2O)O1 (stereo not drawn) [Gentamicin, gentamicin]
MIC [2]: 0.6 µM
MIC [3]: 1.1 µM
MIC [4]: 0.6 µM
MIC [5]: 1.1 µM
MIC [6]: 2.3 µM

N=C(N)NCCC[C@H](NC(=O)[C@H](CCCNC(=N)N)NC(=O)[C@H](CCCNC(=N)N)NC(=O)[C@H](CCCNC(=N)N)NC(=O)[C@H](CCCNC(=N)N)NC(=O)[C@H](CCCNC(=N)N)NC(=O)[C@H](CCCNC(=N)N)NC(=O)[C@@H](N)CCCNC(=N)N)C(N)=O [R8]
Cell impedance (normalized cell index) [7]: decreased the cell impedance

CN/C(=N/CCSCc1nc[nH]c1C)NC#N [cimetidine]
Papp A→B at 30 min, 10 μM ([8]; PN159 treated): 34.5 ± 4.5 ×10⁻⁶ cm/s
Papp A→B at 30 min, 10 μM ([8]; control): 0.9 ± 0.2 ×10⁻⁶ cm/s

COc1ccc2c3c1O[C@H]1C[C@@H](O)C=C[C@@]31CCN(C)C2 [galantamine]
Increase of permeability [9]: 2 to 3 fold

cyclo[CGGFWRRRRGE(εAca)G] (cyclo(CGGFWRRRRGE)-{εAca-Gly}) [φ-peptide]
Cell impedance (normalized cell index) [7]: decreased the cell impedance
Permeability for fluorescein marker molecule [10]: elevated permeability

melittin
Concentration needed for inhibition of growth [11]: more than 100 µM
